19 molecules from patent publication US9487510B2, “Substituted heterocyclic acetamides as kappa opioid receptor (KOR) agonists” (Dr. Reddy's Laboratories Ltd., priority 2012, dated 2016) can be followed below.

The experiment has as its target human KOR receptor (Homo sapiens, UniProt P41145). Nature of the experiment: IP-One HTRF assay, potency of KOR agonists, dose-response in transiently transfected COS-7 cells. It is filed as cell-based.

The structures appear in SMILES notation.

Chain of human KOR receptor (P41145 whole entry): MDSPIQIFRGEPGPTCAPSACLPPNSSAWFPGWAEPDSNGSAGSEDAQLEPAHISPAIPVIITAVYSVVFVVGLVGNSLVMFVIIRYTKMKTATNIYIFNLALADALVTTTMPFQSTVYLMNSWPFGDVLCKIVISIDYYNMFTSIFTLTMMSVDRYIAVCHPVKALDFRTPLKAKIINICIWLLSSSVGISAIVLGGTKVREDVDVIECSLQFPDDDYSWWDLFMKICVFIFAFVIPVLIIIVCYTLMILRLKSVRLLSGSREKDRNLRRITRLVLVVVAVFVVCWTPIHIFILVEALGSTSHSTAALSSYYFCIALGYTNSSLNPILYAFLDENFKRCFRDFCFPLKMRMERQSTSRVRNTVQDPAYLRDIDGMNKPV

Take `CC(C)CN(C(=O)Cc1ccc2c(c1)NC(=O)CS2(=O)=O)[C@H](CN1CCC(O)C1)c1cccc(OC(F)(F)F)c1` (stereo in doubt) [Example 140, 2-(1,1-dioxido-3-oxo-3,4-dihydro-2H-benzo[b][1,4]thiazin-6-yl)-N-((S)-2-((S)-3-hydroxypyrrolidin-1-yl)-1-(3-(trifluoromethoxy)phenyl)ethyl)-N-isobutylacetamide]: the concentration for a half-maximal effect (EC50) (commonly the concentration that produces a half-maximal response) was no more than 0.05 µM.
Molecule `COC(=O)c1ccc(Cn2c(=O)oc3ccc(CC(=O)N(C)[C@H](CN4CC[C@H](O)C4)c4ccccc4)cc32)cc1` [Example 98, Methyl 4-((5-(2-(((S)-2-((S)-3-hydroxypyrrolidin-1-yl)-1-phenylethyl)(methyl)amino)-2-oxoethyl)-2-oxobenzo[d]oxazol-3(2H)-yl)methyl)benzoate] yielded a 50% effective concentration (EC50) of no more than 0.05 µM.
Consider `CN(C(=O)Cc1ccc2c(c1)NC(=O)C2(F)F)[C@H](CN1CC[C@H](O)C1)c1ccccc1` [Example 12, 2-(3,3-difluoro-2-oxoindolin-6-yl)-N-((S)-2-((S)-3-hydroxypyrrolidin-1-yl)-1-phenylethyl)-N-methylacetamide], for which the EC50 is no more than 0.05 µM.
For `O=C(Cc1ccc2oc(=O)[nH]c2c1)NC(CN1CCCC1)c1cnn(Cc2ccccc2)c1` (stereo not shown) [Example 62, N-(1-(1-benzyl-1H-pyrazol-4-yl)-2-(pyrrolidin-1-yl)ethyl)-2-(2-oxo-2,3-dihydrobenzo[d]oxazol-5-yl)acetamide] the value was no more than 0.05 µM.
`CCC#Cc1cccc([C@@H](CN2CC[C@H](O)C2)N(C)C(=O)Cc2ccc3sc(=O)[nH]c3c2)c1` [Example 205, N-((S)-1-(3-(but-1-yn-1-yl)phenyl)-2-((S)-3-hydroxypyrrolidin-1-yl)ethyl)-N-methyl-2-(2-oxo-2,3-dihydrobenzo[d]thiazol-5-yl)acetamide] displayed an EC50 of no more than 0.05 µM.
Regarding `CN(C(=O)Cc1ccc2ncc(=O)[nH]c2c1)[C@H](CN1CC[C@H](O)C1)c1cccc(-c2ncon2)c1` [Example 190, N-((S)-1-(3-(1,2,4-oxadiazol-3-yl)phenyl)-2-((S)-3-hydroxypyrrolidin-1-yl)ethyl)-N-methyl-2-(3-oxo-3,4-dihydroquinoxalin-6-yl)acetamide 2,2,2-trifluoroacetate], the EC50 was no more than 0.05 µM.
As to `CN(C(=O)Cc1ccc2c(c1)NC(=O)CS2)[C@H](CN1CCCC1)c1ccccc1` [Example 129, (S)-N-methyl-2-(3-oxo-3,4-dihydro-2H-benzo [b][1,4]thiazin-6-yl)-N-(1-phenyl-2-(pyrrolidin-1-yl)ethyl)acetamide], the concentration giving a half-maximal response (EC50) is no more than 0.05 µM.
Turning to `CCC#Cc1cccc([C@@H](CN2CC[C@H](O)C2)N(C)C(=O)Cc2ccc3c(c2)NS(=O)(=O)C3)c1` [Example 37, N-((S)-1-(3-(but-1-yn-1-yl)phenyl)-2-((S)-3-hydroxypyrrolidin-1-yl)ethyl)-2-(2,2-dioxido-1,3-dihydrobenzo[c]isothiazol-6-yl)-N-methylacetamide], the concentration for a half-maximal effect (EC50) was no more than 0.05 µM.
`CN(C(=O)Cc1ccc2c(c1)NS(=O)(=O)C2)[C@H](CN1CC[C@H](O)C1)c1cccc(-c2noc(C(F)(F)F)n2)c1` [Example 187, 2-(2,2-dioxido-1,3-dihydrobenzo [c]isothiazol-6-yl)-N-((S)-2-((S)-3-hydroxypyrrolidin-1-yl)-1-(3-(5-(trifluoromethyl)-1,2,4-oxadiazol-3-yl)phenyl)ethyl)-N-methylacetamide 2,2,2-trifluoroacetate]: the concentration giving a half-maximal response (EC50) was no more than 0.05 µM.
On to `O=C(O)COc1cccc(C(CN2CC[C@H](O)C2)NC(=O)Cc2ccc3oc(=O)[nH]c3c2)c1` (mixture of isomers) [Example 101, (S)-2-(3-(2-(3-hydroxypyrrolidin-1-yl)-1-(2-(2-oxo-2,3-dihydrobenzo[d]oxazol-5-yl)acetamido)ethyl)phenoxy)acetic acid], for which the half-maximal effective concentration (EC50) is no more than 0.05 µM.
Then `CN(C(=O)Cc1ccc2ncc(=O)[nH]c2c1)[C@H](CN1CC[C@H](O)C1)c1cccc(OCC(=O)O)c1` [Example 171, 2-(3-((S)-2-((S)-3-hydroxypyrrolidin-1-yl)-1-(N-methyl-2-(3-oxo-3,4-dihydroquinoxalin-6-yl)acetamido)ethyl)phenoxy)acetic acid], with no more than 0.05 µM; and `CN(C(=O)Cc1ccc2c(c1)NS(=O)(=O)C2)[C@H](CN1CC[C@H](O)C1)c1cc(F)cc(C#N)c1` [Example 199, N-((S)-1-(3-cyano-5-fluorophenyl)-2-((S)-3-hydroxypyrrolidin-1-yl)ethyl)-2-(2,2-dioxido-1,3-dihydrobenzo[c]isothiazol-6-yl)-N-methylacetamide], with no more than 0.05 µM.
For `Cc1cc(C)cc([C@@H](CN2CCC(O)C2)N(C)C(=O)Cc2ccc3c(c2)NC(=O)CS3(=O)=O)c1` (stereo in doubt) [Example 147, N-((S)-1-(3,5-dimethylphenyl)-2-((S)-3-hydroxypyrrolidin-1-yl)ethyl)-2-(1,1-dioxido-3-oxo-3,4-dihydro-2H-benzo[b][1,4]thiazin-6-yl)-N-methylacetamide] the value was no more than 0.05 µM; for `CN(C(=O)Cc1ccc2c(c1)NC(=O)C2)[C@H](CN1CC[C@H](O)C1)c1cccc(OCC(=O)NS(C)(=O)=O)c1` [Example 27, N-((S)-2-((S)-3-hydroxypyrrolidin-1-yl)-1-(3-(2-(methylsulfonamido)-2-oxoethoxy)phenyl)ethyl)-N-methyl-2-(2-oxoindolin-6-yl)acetamide], 0.051 to 0.1 µM; for `Cc1nnc(-c2cccc([C@@H](CN3CC[C@H](O)C3)N(C)C(=O)Cc3ccc4c(c3)NC(=O)C4)c2)s1` [Example 221, N-((S)-2-((S)-3-hydroxypyrrolidin-1-yl)-1-(3-(5-methyl-1,3,4-thiadiazol-2-yl)phenyl)ethyl)-N-methyl-2-(2-oxoindolin-6-yl)acetamide], no more than 0.05 µM.
Then `CN(C(=O)Cc1ccc2c(c1)NC(=O)CS2(=O)=O)[C@H](CN1CC[C@H](O)C1)c1cccc(C#N)c1` [Example 6, N-((S)-1-(3-cyanophenyl)-2-((S)-3-hydroxypyrrolidin-1-yl)ethyl)-2-(1,1-dioxido-3-oxo-3,4-dihydro-2H-benzo[b][1,4]thiazin-6-yl)-N-methylacetamide], with no more than 0.05 µM.
Molecule `O=C1CSc2ccc(CC(=O)N[C@H](CN3CCCC3)c3ccccc3)cc2N1` [Example 127, (S)-2-(3-oxo-3,4-dihydro-2H-benzo [b][1,4]thiazin-6-yl)-N-(1-phenyl-2-(pyrrolidin-1-yl)ethyl)acetamide] returned a 50% effective concentration (EC50) of no more than 0.05 µM.
Regarding `CCN(CC)C(=O)COc1cccc([C@@H](CN2CC[C@H](O)C2)N(C)C(=O)Cc2ccc3c(c2)NC(=O)C3)c1` [Example 41, N-((S)-1-(3-(2-(diethylamino)-2-oxoethoxy)phenyl)-2-((S)-3-hydroxypyrrolidin-1-yl)ethyl)-N-methyl-2-(2-oxoindolin-6-yl)acetamide], the 50% effective concentration (EC50) is no more than 0.05 µM.
`O=C1CS(=O)(=O)c2ccc(CC(=O)N(CC(F)(F)F)[C@H](CN3CC[C@H](O)C3)c3cccc(OC(F)(F)F)c3)cc2N1` [Example 16, 2-(1,1-dioxido-3-oxo-3,4-dihydro-2H-benzo[b][1,4]thiazin-6-yl)-N-((S)-2-((S)-3-hydroxypyrrolidin-1-yl)-1-(3-(trifluoromethoxy)phenyl)ethyl)-N-(2,2,2-trifluoroethyl)acetamide 2,2,2-trifluoroacetate]: the 50% effective concentration (EC50) is no more than 0.05 µM.
